Measured values taken from patent publication US10259815B2, “Gabaergic ligands and their uses” (UWM Research Foundation, Inc., priority 2015, dated 2019).
“And” between values parts separate entries of the source, which are not always exact repeats. Equal values may be shown once. “Also recorded” adds a separate entry of the source.

Tests used:
[1] = molecular target: T1, α1, β3, γ2 GABA A receptor (Homo sapiens, UniProt P14867+P18507); assay: FLIPR functional assay, α1 GABAA receptor subtype in HEK-293 cells; format: cell-based
T1 construct: host or cells: HEK-293, stably transfected
T1 sequence (P14867 28-456): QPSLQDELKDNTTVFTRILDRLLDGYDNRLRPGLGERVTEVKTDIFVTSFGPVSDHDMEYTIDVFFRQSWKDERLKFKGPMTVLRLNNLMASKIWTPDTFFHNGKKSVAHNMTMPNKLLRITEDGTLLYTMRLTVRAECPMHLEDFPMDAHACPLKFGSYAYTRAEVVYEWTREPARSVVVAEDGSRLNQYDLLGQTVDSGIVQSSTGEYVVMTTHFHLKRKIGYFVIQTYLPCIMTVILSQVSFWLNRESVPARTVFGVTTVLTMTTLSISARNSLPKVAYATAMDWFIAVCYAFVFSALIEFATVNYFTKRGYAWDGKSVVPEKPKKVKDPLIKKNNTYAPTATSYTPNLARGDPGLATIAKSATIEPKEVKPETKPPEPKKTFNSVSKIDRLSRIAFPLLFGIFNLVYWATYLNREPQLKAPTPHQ
T1 sequence (P28472 26-473 partner): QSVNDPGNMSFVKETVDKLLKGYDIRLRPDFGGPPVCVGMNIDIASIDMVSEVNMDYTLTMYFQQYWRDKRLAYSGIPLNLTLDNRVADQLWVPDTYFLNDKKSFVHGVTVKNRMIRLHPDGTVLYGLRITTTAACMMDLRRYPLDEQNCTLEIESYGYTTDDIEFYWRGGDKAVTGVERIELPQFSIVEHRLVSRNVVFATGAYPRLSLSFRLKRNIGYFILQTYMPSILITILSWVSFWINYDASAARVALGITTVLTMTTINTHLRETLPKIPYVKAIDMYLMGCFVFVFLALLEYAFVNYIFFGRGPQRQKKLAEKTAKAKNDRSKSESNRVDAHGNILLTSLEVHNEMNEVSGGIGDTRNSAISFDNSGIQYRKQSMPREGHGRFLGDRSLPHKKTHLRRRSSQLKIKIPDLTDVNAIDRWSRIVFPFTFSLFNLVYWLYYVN
T1 sequence (P18507 40-475): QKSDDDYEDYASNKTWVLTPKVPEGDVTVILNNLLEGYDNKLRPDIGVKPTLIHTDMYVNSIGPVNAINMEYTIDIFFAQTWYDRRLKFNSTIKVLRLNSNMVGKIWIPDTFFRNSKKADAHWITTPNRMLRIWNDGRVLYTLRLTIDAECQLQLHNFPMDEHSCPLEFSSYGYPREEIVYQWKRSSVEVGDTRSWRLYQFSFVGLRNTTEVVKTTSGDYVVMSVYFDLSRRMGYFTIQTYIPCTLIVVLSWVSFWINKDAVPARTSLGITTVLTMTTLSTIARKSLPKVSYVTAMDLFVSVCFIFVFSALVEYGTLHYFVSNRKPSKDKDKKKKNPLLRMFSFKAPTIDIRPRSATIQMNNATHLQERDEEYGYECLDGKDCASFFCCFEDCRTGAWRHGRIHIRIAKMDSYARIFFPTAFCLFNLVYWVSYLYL
Text: (§1) The FLIPR functional assay is used to determine the EC50 at the α1 and α3 GABAA receptor subtypes. A high EC50 for the α1 subtype would indicate a low chance of adverse effects, including sedation, ataxia, and muscle relaxation. A low α3 EC50 would indicate potential effectiveness as an anxiolytic, antihyperalgesic, and likely an anticonvulsant. See, for example, Liu et al. (Assay. Drug. Dev. Technol. 2008, 6, 781-6) and Joesch et al. (J. Biomol. Screen. 2008, 13, 218-28).
(§2) Compounds tested were synthesized internally and solubilized in DMSO at a 10 mM concentration. GABA was purchase from Sigma (#A2129) and prepared at 100 mM in water.
(§3) HEK-293 cells were stably transfected with the α1, β3, γ2 GABA A receptor subunits (GenBank accession numbers NM_000806.3, NM_000814.5, and NM_198904.1, respectively) or α3, β3, γ2 (NM_000808 for α3) where obtained from ChanTest Co. (Catalog # CT6216 and CT6218, respectively).
(§4) Cells were cultivated in Dulbeco's Modified Eagle's Medium (DMEM, Sigma D5796) supplemented with 10% Fetal Bovine Serum (FBS, Gibco 16000), 0.5 mg/mL Geneticin (Gibco), 0.04 mg/mL Hygromycin B (Gibco), 0.1 mg/mL Zeocin (Gibco) and 20 mM HEPES (Sigma). Cells were grown at 37° C. in a humidified atmosphere of 5% CO2. In the experiments described here frozen cells were used. For this purpose, cells were gown and maintained under confluency during 2-3 weeks and then frozen down at different cell densities using Recovery™ Cell Culture Freezing Medium (Gibco).
(§5) 18 hours prior to the experiment, cells were quickly thawed at 37° C. and seeded on Poly-D-Lys 384 plates (Corning 356663) at a density of 25,000 cells/well and in 25 μL of complete cell medium as described above.
(§6) Membrane potential changes induced by the flux of ions through the receptor were measured as relative fluorescence units (RFU) using the Fluorometric Imaging Plate Reader (FLIPR Tetra®, Molecular Devices) and the FLIPR Membrane Potential Blue Assay kit (Molecular Devices). Prior to the addition of the compounds the medium was removed and cells were loaded with 20 μL of dye prepared in assay buffer composed of Hank's Balanced Salt Solution (HBSS with Ca^+2 and Mg^+2; Gibco 14025) with 20 mM Hepes. After 1 hour of incubation at room temperature (RT), the plate was placed into the FLIPR instrument and experiments were run adding first 10 μL from the 1st addition plate (compound plate) and after a 3 minutes incubation adding 20 μL of the 2nd addition or agonist plate. The response to this last GABA addition was monitored for another 3 minutes. […]
(§7) Data Analysis. The difference between the maximum and the minimum (Max-Min) fluorescence reached during the first addition or read interval and the second read interval were used for data analysis (agonist and potentiation, respectively). […]

[2] = Liver microsomal stability, human; format: in vitro ADME; conditions: for Human Liver microsome stability (reported in % remaining): 37° C., 4 μM compound, 30 minutes
Method: (§8) In vitro metabolism studies were done in mouse, rat, human, and dogs cells (TABLE 2).
(§9) In vitro liver microsomal studies were completed to measure the stability of the compounds against degradation in various species' liver microsomes.
(§10) Compound was incubated in hepatic microsomes over a 30-minute incubation period at 37° C. Incubations both with and without NADPH (2 mM) were performed in a 96-well plate format. The reaction was initiated with the addition of substrate and was terminated by protein precipitation. All incubations were performed using a final substrate concentration of 4 μM in 50 mM sodium phosphate buffer, pH 7.4. The final organic solvent content was 0.5% acetonitrile and 0.02% DMSO. The amount of enzyme present was fixed at 1.11 mg/mL protein irrespective of the species of microsomes used. Samples were analyzed by LC/MS-MS to determine the percent loss in the NAPDH incubations relative to the NADPH free incubations.

[3] = molecular target: T2, α3, β3, γ2 GABA A receptor (Homo sapiens, UniProt P18507+P34903); assay: FLIPR functional assay, α3 GABAA receptor subtype in HEK-293 cells; format: cell-based; conditions: α3 Binding EC50, FLIPR membrane potential, potentiation of GABA EC20
T2 construct: host or cells: HEK-293, stably transfected
T2 sequence (P34903 29-492): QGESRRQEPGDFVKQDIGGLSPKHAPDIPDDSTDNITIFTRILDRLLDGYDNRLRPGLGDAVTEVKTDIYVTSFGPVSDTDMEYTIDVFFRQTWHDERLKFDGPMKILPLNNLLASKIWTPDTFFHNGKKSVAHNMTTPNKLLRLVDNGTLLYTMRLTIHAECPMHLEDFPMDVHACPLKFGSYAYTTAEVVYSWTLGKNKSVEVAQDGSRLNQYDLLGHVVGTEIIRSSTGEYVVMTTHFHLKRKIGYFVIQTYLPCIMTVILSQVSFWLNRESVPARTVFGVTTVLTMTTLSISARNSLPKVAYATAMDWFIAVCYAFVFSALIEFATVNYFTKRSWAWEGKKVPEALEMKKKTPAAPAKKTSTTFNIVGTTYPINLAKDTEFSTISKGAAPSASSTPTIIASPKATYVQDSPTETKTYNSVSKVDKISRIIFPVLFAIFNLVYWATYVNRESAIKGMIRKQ
T2 sequence (P28472 26-473 partner): as the sequence (P28472 26-473 partner) above
T2 sequence (P18507 40-475): as the sequence (P18507 40-475) above
Text: as §1, §2, §3, §4, §5, §6, §7

[4] = Liver microsomal stability, mouse; format: in vitro ADME; conditions: for Mouse Liver microsome stability (reported in % remaining): 37° C., 4 μM compound, 30 minutes
Method: as §8, §9, §10

Male Sprague-Dawley rats [5] = assay: PTZ-induced seizure threshold; format: in vivo
Method: (§11) Results were analyzed using ANOVA (Dunnett's test: *P<0.05).
After a pretreatment of test compound, MET was intravenously administered to a test subject until a convulsions were observed.
Each animal was used only once and was euthanized post testing. Results were analyzed using ANOVA (Dunnett's test: *P<0.05).

Male Sprague-Dawley rats [6] = assay: Inverted screen test (muscle relaxation); format: in vivo
Method: as §11
The inverted screen test is used to measure whether or not a test compound induces muscle relaxation. When a test subject is placed on a wire screen which is then inverted, the reaction is to climb to the opposite side so they are no longer hanging upside down. If a compound promotes muscle relaxation, the test subjects will either fall off, or hang onto the screen without being able to climb to the opposite side.
Rats were placed onto the top of a wire screen, which was then inverted so that the rats were hanging upside down. […] Results were analyzed using ANOVA (Dunnett's test: *P<0.05).

CYP3A4 = CYP3A4 (Homo sapiens, UniProt P08684); assay: CYP substrate assessment, CYP3A4
Sequence of CYP3A4 (P08684 whole entry): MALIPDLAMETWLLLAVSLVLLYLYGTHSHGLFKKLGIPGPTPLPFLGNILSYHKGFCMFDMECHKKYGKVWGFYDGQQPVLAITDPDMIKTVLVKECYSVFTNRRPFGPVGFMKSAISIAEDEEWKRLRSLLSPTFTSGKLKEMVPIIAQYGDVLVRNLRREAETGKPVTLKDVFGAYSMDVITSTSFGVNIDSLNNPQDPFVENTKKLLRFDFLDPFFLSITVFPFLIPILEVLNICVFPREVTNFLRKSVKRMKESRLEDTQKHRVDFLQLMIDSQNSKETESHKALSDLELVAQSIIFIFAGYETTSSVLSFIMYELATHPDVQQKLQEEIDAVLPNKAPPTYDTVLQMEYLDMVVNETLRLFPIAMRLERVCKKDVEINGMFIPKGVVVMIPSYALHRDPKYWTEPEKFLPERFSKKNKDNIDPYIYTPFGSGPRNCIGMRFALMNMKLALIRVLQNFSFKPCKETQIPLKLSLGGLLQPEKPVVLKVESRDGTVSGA

CYP2D6 = CYP2D6 (Homo sapiens, UniProt P10635); assay: CYP substrate assessment, CYP2D6
Sequence of CYP2D6 (P10635 whole entry): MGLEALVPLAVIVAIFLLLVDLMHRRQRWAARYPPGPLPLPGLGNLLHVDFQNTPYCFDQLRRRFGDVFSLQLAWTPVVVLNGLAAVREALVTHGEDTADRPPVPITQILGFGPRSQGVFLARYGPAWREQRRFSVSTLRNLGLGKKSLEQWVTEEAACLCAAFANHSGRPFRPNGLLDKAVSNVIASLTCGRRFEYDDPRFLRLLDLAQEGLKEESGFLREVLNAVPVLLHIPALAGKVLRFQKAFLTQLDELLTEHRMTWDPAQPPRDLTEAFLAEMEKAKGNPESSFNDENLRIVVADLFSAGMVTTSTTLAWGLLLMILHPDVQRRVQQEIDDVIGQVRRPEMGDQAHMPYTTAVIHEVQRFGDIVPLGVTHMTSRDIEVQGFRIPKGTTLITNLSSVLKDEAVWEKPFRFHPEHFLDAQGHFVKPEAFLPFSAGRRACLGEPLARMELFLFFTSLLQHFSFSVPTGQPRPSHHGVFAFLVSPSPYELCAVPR

| Compound | EC50 [1] [nM] | Human Liver microsome stability (reported in % remaining) [2] [% remaining] | EC50 [3] | Mouse Liver microsome stability (reported in % remaining) [4] [% remaining] | dose of MET required for convulsion (Male Sprague-Dawley rats [5]; pretreated with 10 mg/kg i.p., PTZ infused i.v.) [mg/kg] | effect on seizure threshold to PTZ (Male Sprague-Dawley rats [5]; test compound 3 to 60 mg/kg, diazepam 0.1 to 1 mg/kg i.p.) | Human % Metabolized ([2]; in vitro metabolism, human) [%] | muscle relaxation / motor impairment in inverted screen (Male Sprague-Dawley rats [6]; i.p. 30 minutes prior, diazepam 3, 10, 30 mg/kg, KRM-II-81 10, 30, 60 mg/kg, HZ-166 30 mg/kg) | dose at which signs of muscle relaxation began to appear (Male Sprague-Dawley rats [6]; i.p., inverted screen) [mg/kg] | Mouse % Metabolized ([4]; in vitro metabolism, mouse) [%] | substrate of CYP3A4 (CYP3A4) | substrate of CYP2D6 (CYP2D6) |
| --- | --- | --- | --- | --- | --- | --- | --- | --- | --- | --- | --- | --- |
| C#Cc1ccc2c(c1)C(c1ccccc1F)=NCc1c(-c3cnco3)ncn1-2 [KRM-II-18B, 5-(8-Ethynyl-6-(2-fluorophenyl)-4H-benzo[f]imidazo[1,5-a][1,4]diazepin-3-yl)oxazole] | > 20000 | 78 | 11.2 nM | 79 |  |  |  |  |  |  |  |  |
| C#Cc1ccc2c(c1)C(c1ccccn1)=NCc1c(-c3cnco3)ncn1-2 [KRM-II-81, 5-(8-Ethynyl-6-(pyridin-2-yl)-4H-benzo[f]imidazo[1,5-a][1,4]diazepin-3-yl)oxazole] | > 20000 | 91 | 970 nM and 937 nM | 90 | 71 | significantly increased the seizure threshold to PTZ; also recorded: larger maximal effect | 8.6 | Neither HZ-166 nor KRM-II-81 induced significant muscle relaxation | 60 | 10.1 | not found to be a substrate | not found to be a substrate |
